Patent publication US10633389B2, “CARM1 inhibitors and uses thereof” (Epizyme, Inc., priority 2013, dated 2020)

What was measured:
[1] = test system: asymmetric di-methyl PABP1 in RKO cells; assay: RKO methylation assay, In Cell Western (ICW) for asymmetric di-methyl PABP1; format: cell-based; settings: Homo sapiens, RKO, Cellular potencies, ICW PABP1me2a
In short: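 In-cell Western on fixed RKO cells after 48 h compound exposure: anti-asymmetric di-methyl PABP1 signal at 800 nm over DRAQ5 DNA signal at 700 nm. Percent inhibition set between DMSO wells and wells with 20 μM reference compound; IC50 curves fitted in triplicate.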

human CARM1 (PRMT4) = human CARM1 (PRMT4) (Homo sapiens (Human), UniProt Q86X55); assay: CARM1 enzyme assay on peptide substrate (3H-SAM Flashplate); settings: Biochemical potencies, read-out: Biochem IC50
Sequence of human CARM1 (PRMT4) (Q86X55 other isoform, or with tags, fused parts or gaps isoform Q86X55-1): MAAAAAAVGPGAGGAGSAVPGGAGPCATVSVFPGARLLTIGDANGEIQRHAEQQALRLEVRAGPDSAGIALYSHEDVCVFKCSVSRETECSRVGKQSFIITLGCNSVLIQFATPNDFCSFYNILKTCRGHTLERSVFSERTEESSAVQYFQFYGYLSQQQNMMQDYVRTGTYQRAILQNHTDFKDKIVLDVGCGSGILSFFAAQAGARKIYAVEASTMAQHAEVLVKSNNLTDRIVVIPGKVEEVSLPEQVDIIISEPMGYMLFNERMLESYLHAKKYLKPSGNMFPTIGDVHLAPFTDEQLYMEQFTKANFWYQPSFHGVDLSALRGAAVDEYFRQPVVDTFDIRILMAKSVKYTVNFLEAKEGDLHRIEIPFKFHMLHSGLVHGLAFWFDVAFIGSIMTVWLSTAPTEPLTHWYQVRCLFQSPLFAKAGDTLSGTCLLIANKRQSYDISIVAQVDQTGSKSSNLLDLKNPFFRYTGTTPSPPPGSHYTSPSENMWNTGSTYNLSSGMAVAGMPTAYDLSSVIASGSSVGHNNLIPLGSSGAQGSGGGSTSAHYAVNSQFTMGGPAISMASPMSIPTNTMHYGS
From the text: S-adenosylmethionine (SAM), S-adenosylhomocysteine (SAH), bicine, Tween20, dimethylsulfoxide (DMSO), bovine skin gelatin (BSG), sodium butyrate and Tris(2-carboxyethyl)phosphine hydrochloride solution (TCEP) were purchased from Sigma-Aldrich at the highest level of purity possible. ^3H-SAM was purchase from American Radiolabeled Chemicals with a specific activity of 80 Ci/mmol. 384-well streptavidin Flashplates were purchased from PerkinElmer.
Peptide representative of human histone H3 residues 16-30 was synthesized with an N-terminal linker-affinity tag motif and a C-terminal amide cap by 21st Century Biochemicals. […] The sequence was Biot-Ahx-[…]-amide and contained a monomethylated arginine at position 26 (SEQ ID NO.:1).
The gene sequence encoding isoform 1 containing a deletion of amino acids 539-561 was amplified subsequently and subcloned into pFastBacMam (Viva Biotech).
Recombinant baculovirus were generated according to Bac-to-Bac kit instructions (Life Technologies). Protein over-expression was accomplished by infecting exponentially growing HEK 293F cell culture at 1.3×10^6 cell/ml with virus (MOI=10) in the presence of 8 mM sodium butyrate. Infections were carried out at 37° C. for 48 hours, harvested by centrifugation, and stored at −80° C. for purification.
Expressed full-length human Flag- and His-tagged CARM1 protein was purified from cell paste by anti-flag M2 affinity chromatography with resin equilibrated with buffer containing 20 mM Tris, 150 mM NaC, 5% glycerol, pH 7.8. Column was washed with 500 mM NaCl in buffer A and Flag-CARM1-His was eluted with 200 ug/ml FLAG peptide in buffer A. Pooled fractions were dialyzed in 20 mM Tris, 150 mM NaCl, 5% glycerol and 1 mM DTT, pH 7.8.
The assays were all performed in a buffer consisting of 20 mM Bicine (pH=7.6), 1 mM TCEP, 0.005% BSG, and 0.002% Tween 20, prepared on the day of use. Compounds in 100% DMSO (1 ul) were spotted into a polypropylene 384-well V-bottom plates (Greiner) using a Platemate Plus outfitted with a 384-channel head (Thermo Scientific). DMSO (1 ul) was added to Columns 11, 12, 23, 24, rows A-H for the maximum signal control and 1 ul of SAH, a known product and inhibitor of CARM1, was added to columns 11, 12, 23, 24, rows I-P for the minimum signal control. A cocktail (40 ul) containing the CARM1 enzyme was added by Multidrop Combi (Thermo-Fisher). The compounds were allowed to incubate with CARM1 for 30 min at room temperature, then a cocktail (10 ul) containing ^3H-SAM and peptide was added to initiate the reaction (final volume=51 ul). The final concentrations of the components were as follows: CARM1 was 0.25 nM, ^3H-SAM was 30 nM, peptide was 250 nM, SAH in the minimum signal control wells was 1 mM, and the DMSO concentration was 2%. The assays were stopped by the addition of non-radiolabeled SAM (10 ul) to a final concentration of 300 uM, which dilutes the ^3H-SAM to a level where its incorporation into the peptide substrate is no longer detectable. 50 ul of the reaction in the 384-well polypropylene plate was then transferred to a 384-well Flashplate and the biotinylated peptides were allowed to bind to the streptavidin surface for at least 1 hour before being washed once with 0.1% Tween20 in a Biotek ELx405 plate washer. The plates were then read in a PerkinElmer TopCount plate reader to measure the quantity of ^3H-labeled peptide bound to the Flashplate surface, measured as disintegrations per minute (dpm) or alternatively, referred to as counts per minute (cpm).
The Hill Coefficient normally allowed to float but may also be fixed at 1 in a 3-parameter fit.

IC50 [1] [µM]	IC50 (human CARM1 (PRMT4)) [µM]	Structure (SMILES)
≥ 20	0.1 to 1	CNCC(O)COc1cc(-c2nc(NC3CCOC(C)C3)c(C)c(-c3c(C)noc3C)n2)ccc1F (stereo not shown) [Example 51-3]
≥ 20	0.1 to 1	CNCC(O)COc1cc(-c2nc(NC3CCOCC3)c(C)c(-c3c(C)noc3C)n2)ccc1F (stereo not shown) [Example 52-3]
≥ 20	0.1 to 1	CNC[C@@H](O)COc1ccc(F)c(-c2nc(-c3c(C)noc3C)c(C)c(-c3c(C)noc3C)n2)c1 [Example 78-3]
≥ 20	3 to 10	CNCC(O)COc1cccc(-c2nc(NC3CCOCC3)c(C)c(-c3c(C)noc3C)n2)c1Cl (stereo not shown) [Example 79-3]
≥ 20	0.1 to 1	CNCC(O)COc1cccc(-c2nc(NC3CCOC(C)C3)c(C)c(-c3c(C)noc3C)n2)c1Cl (stereo not shown) [Example 80-3]
≥ 20	1 to 3	CNC[C@H](O)COc1ccc(F)c(-c2nc(-c3c(C)noc3C)c(C)c(-c3c(C)noc3C)n2)c1 [Example 81-3]
≥ 20	3 to 10	CNCC(O)COc1cccc(-c2nc(NC3CCN(C(=O)OC)CC3)c(C)c(-c3c(C)noc3C)n2)c1Cl (stereo not shown) [Example 107-3]
10 to 20	0.1 to 1	CNCC(O)COc1ccc(C)c(-c2nc(NC3CCOCC3)c(C)c(-c3c(C)noc3C)n2)c1 (stereo not shown) [Example 123-3]
≥ 20	0.1 to 1	CNCC(O)COc1ccc(C#N)c(-c2nc(NC3CCN(C(=O)OC)CC3)c(C)c(-c3c(C)noc3C)n2)c1 (stereo not shown) [Example 165-3]
≥ 20	0.1 to 1	CNCC(O)COc1ccc(C#N)c(-c2nc(NC3CCOCC3)c(C)c(-c3c(C)noc3C)n2)c1 (stereo not shown) [Example 166-3]
≥ 20	0.1 to 1	COC(=O)N1CC[C@H](Nc2nc(-c3cc(OC[C@H](O)CN(C)C)ccc3Cl)nc(-c3c(C)noc3C)c2C)C[C@@H]1C [Example 193-3]
≥ 20	0.1 to 1	CNC[C@@H](O)COc1ccc(Cl)c(-c2nc(-c3c(C)noc3C)c(C)c(C3(C)CC3)n2)c1 [Example 262-3]

Second part, the molecule before the results:

Structure (SMILES)	IC50 [1] [µM]	IC50 (human CARM1 (PRMT4)) [µM]
CNCC(O)COc1cccc(-c2nccc(-c3c(C)noc3C)n2)c1 (stereo not shown) [Example 2-1a]	10 to 20	0.1 to 1
NCC(O)COc1cccc(-c2cc(N3CCOCC3)nc(N3CCOCC3)n2)c1 (stereo not shown) [Example 7-2]		0.1 to 1
CNCC(O)COc1cccc(-c2nc(NC3CCOCC3)cc(N(C)C)n2)c1 (stereo not shown) [Example 8-1]		0.1 to 1
CNCC(O)COc1cccc(-c2cc(C3CCOCC3)nc(N[C@H]3CCOC3)n2)c1 (stereo partly shown) [Example 10-2]		0.1 to 1
CNCC(O)COc1cccc(-c2nc(NC3COC3)cc(-c3c(C)noc3C)n2)c1 (stereo not shown) [Example 22-1a]	10 to 20	0.1 to 1
CNCC(O)COc1cccc(-c2nc(NC3CCOC3=O)cc(-c3c(C)noc3C)n2)c1 (stereo not shown) [Example 24-1a]		0.1 to 1
CNCC(O)COc1cccc(-c2nc(-c3c(C)noc3C)c(C)c(-c3c(C)noc3C)n2)c1 (stereo not shown) [Example 25-1a]	10 to 20	0.1 to 1
CNCC(O)COc1cccc(-c2nc(-c3c(C)n[nH]c3C)c(C)c(-c3c(C)noc3C)n2)c1 (stereo not shown) [Example 26-1a]	10 to 20	1 to 3
CNCC(O)COc1cccc(-c2nc(-c3ccn4cnnc4c3)c(C)c(-c3c(C)noc3C)n2)c1 (stereo not shown) [Example 37-1a]	10 to 20	0.1 to 1
CNCC(O)COc1cccc(-c2nc(C(=O)N(C)CC3CCOCC3)cc(-c3c(C)noc3C)n2)c1 (stereo not shown) [Example 46-1a]	10 to 20	0.1 to 1
CNCC(O)COc1cccc(-c2nc(Nc3c(C)noc3C)cc(-c3c(C)noc3C)n2)c1 (stereo not shown) [Example 48-1a]	10 to 20	1 to 3
CCCCOc1nc(-c2ccc(F)c(OCC(O)CNC)c2)nc(-c2c(C)noc2C)c1C (stereo not shown) [Example 50-3]	≥ 20	0.1 to 1
CNCC(O)COc1cccc(-c2nc(C(=O)NC3CCOCC3)cc(-c3c(C)noc3C)n2)c1 (stereo not shown) [Example 52-1a]	10 to 20	0.1 to 1
CNCC(O)COc1cccc(-c2nc(C(=O)NC3CCOCC3)c(C)c(-c3c(C)noc3C)n2)c1 (stereo not shown) [Example 62-1a]	10 to 20	1 to 3
CNCC(O)COc1cccc(-c2nc(C(=O)N(C)C)cc(-c3c(C)noc3C)n2)c1 (stereo not shown) [Example 63-1a]	10 to 20	1 to 3
CNCC(O)COc1cccc(-c2nc(-c3c(C)noc3C)cc(N(C)C(C)=O)n2)c1 (stereo not shown) [Example 64-1a]	10 to 20	0.1 to 1
CNCC(O)COc1cccc(-c2nc(C(=O)NCC3CCOCC3)cc(-c3c(C)noc3C)n2)c1 (stereo not shown) [Example 65-1a]	10 to 20	0.1 to 1

Structure (SMILES)	IC50 [1] [µM]	IC50 (human CARM1 (PRMT4)) [µM]
CNCC(O)COc1cccc(-c2nc(O)c(C)c(-c3c(C)noc3C)n2)c1 (stereo not shown) [Example 73-1a]	10 to 20	0.1 to 1
CNCC(O)COc1cccc(-c2nc(OC)c(C)c(-c3c(C)noc3C)n2)c1 (stereo not shown) [Example 83-1a]	10 to 20	0.1 to 1
CNCC(O)COc1cccc(-c2nc(NC3(C(=O)NC)CCOC3)c(C)c(-c3c(C)noc3C)n2)c1 (stereo not shown) [Example 113-1a]	10 to 20	3 to 10
CNCC(O)COc1cccc(-c2nc(Nc3c(C)nn(C)c3C)cc(-c3c(C)noc3C)n2)c1 (stereo not shown) [Example 122-1a]	10 to 20	1 to 3
CNCC(O)COc1cccc(-c2nc(-c3c(C)noc3C)c(C)c(N3CCO[C@@H](CO)C3)n2)c1 (stereo partly shown) [Example 123-1a]	5 to 10	0.1 to 1
CNCC(O)COc1cccc(-c2nc(-c3c(C)noc3C)c(C)c(N3CCO[C@H](CN(C)C(=O)N(C)C)C3)n2)c1 (stereo partly shown) [Example 128-1a]	5 to 10	0.1 to 1
CNCC(O)COc1cccc(-c2nc(-c3c(C)noc3C)c(C)c(-c3nc(C)cn3C)n2)c1 (stereo not shown) [Example 130-1a]	10 to 20	0.1 to 1
CNCC(O)COc1cccc(-c2nc(NC(C)C3CCOCC3)cc(-c3c(C)noc3C)n2)c1 (stereo not shown) [Example 158-1a]	5 to 10	0.1 to 1
CNCC(O)COc1cccc(-c2nc(-c3c(C)noc3C)c(C)c(N3CCC[C@@H](N(C)C(=O)OC)C3)n2)c1 (stereo partly shown) [Example 180-1a]	10 to 20	0.1 to 1
CNCC(O)COc1cccc(-c2nc(NC3CCOCC3)c(CO)c(-c3c(C)noc3C)n2)c1 (stereo not shown) [Example 213-1a]	10 to 20	0.1 to 1
CNCC(O)COc1cccc(-c2nc(NC3CCOCC3)c(C(F)F)c(-c3c(C)noc3C)n2)c1 (stereo not shown) [Example 214-1a]	5 to 10	0.1 to 1
CNCC(O)COc1cccc(-c2nc(N[C@H]3C[C@H](C(=O)O)C3)c(C)c(-c3c(C)noc3C)n2)c1 (stereo partly shown) [Example 222-1a]	10 to 20	0.1 to 1
CNCC(O)COc1cccc(-c2nc(N[C@H]3C[C@@H](C(=O)O)C3)c(C)c(-c3c(C)noc3C)n2)c1 (stereo partly shown) [Example 223-1a]	10 to 20	1 to 3
CNCC(O)COc1cccc(-c2nc(N[C@H]3CCOC3)c(C)c(-c3ccncc3)n2)c1 (stereo partly shown) [Example 333-1a]	10 to 20	0.1 to 1
CNCC(O)COc1cc(Cl)cc(-c2nc(N[C@@H]3CCOC3)c(C)c(C(=O)NCC3CCOCC3)n2)c1 (stereo partly shown) [Example 336-1a]	10 to 20	0.1 to 1
CNCC(O)COc1cccc(-c2nc(N[C@@H]3CCOC3)c(C)c(-c3ccnn3C)n2)c1 (stereo partly shown) [Example 337-1a]	5 to 10	0.1 to 1
CNCC(O)COc1cccc(-c2nc(N[C@@H]3CCOC3)c(C)c(C(=O)NCC3CCOCC3)n2)c1 (stereo partly shown) [Example 346-1a]	10 to 20	0.1 to 1
